# Measured values taken from patent publication US20080293699A1, “Inhibitors of thapsigargin-induced cell death” (priority 2007, published 2008).
# “Also recorded” adds a separate entry of the source.
# Tests used:
# SW1 melanoma cell = test: Thapsigargin-induced death of SW1 cells, ATP content assay; format: cell-based, human
# Protocol: (§1) In addition to CSM14.1 cells, when tested at 25 μM, Compound 5962123 protected by >50% against thapsigargin-induced death of several tumor cell lines (HeLa human cervical cancer, SW1 melanoma cell, PPC1, human prostate cancer), mouse neural stem cell C17.2 (both differentiated [neuronal phenotype] and non-differentiated [stem cell phenotype]) as determined by ATP content assay, and primary rat cortical neurons as determined by microscopy assay measuring the percentage of NeuN-immunopositive cells with either normal or apoptotic nuclear morphology (Hoechst dye staining).
# For PC12, cells were stimulated with 20 ng/ml NGF for five days; for C17.2, cells were stimulated with serum reduction, and 1% N2 incubation for three days; for CSM14.1, cells were cultured at 39° C. for 5-7 days.
# Jurkat human T-leukemia = test: Thapsigargin-induced death of Jurkat cells, ATP content assay; format: cell-based; details: 25 μM
# Protocol: To explore whether compounds broadly protect cells of various lineages versus only neuronal cells, we tested all 26 hits for ability to rescue CSM14.1 (neuronal), and Jurkat (lymphoid), cell lines from cell death induced by TG. […] CSM 14.1 (FIG. 15, left) and Jurkat cells (FIG. 15, right) were cultured overnight at 3,000 cells per well or at 30,000 cells per well, respectively, in 96-well plates. Wells received DMSO alone or 25 μM compounds in DMSO, followed by treatment with or without TG (15 μM). After culturing for 24 hrs, ATP content was determined, expressing data as a percentage control relative to cells treated only with DMSO (mean ±SD; n=3). The data reveal that one of the compounds protects CSM14.1 but not Jurkat cells from TG-induced cell death (as measured by the ATPlite assay). […]
# as §1, with “staining). […]” for “staining).”
# [1] = tested on: primary rat cortical neurons; test: Thapsigargin-induced death of primary cortical neurons, microscopy assay (NeuN, Hoechst); format: cell-based
# Protocol: as §1
# Description of secondary screens. The secondary screens used to characterize compound 5962123 (many of which were used to characterize all 11 benzodiazepines) are outlined above. Thirty-one secondary screens have been used to date to characterize compound 5962123. […] Finally, compound 2878746 inhibits thapsigargin-induced cell death of rat primary cortical neurons (identified by staining with NeuN), as determined by counting apoptotic […] (NeuN)-positive cells stained with the DNA-binding fluorochrome Hoechst dye to identify cells with condensed nuclear morphology indicative of apoptosis and evidence of neurite retraction.
# Jnk-1 and Jnk-2 = test: c-Jun activation by purified Jnk-1 and Jnk-2, in vitro kinase assay; format: biochemical; details: 50 μM compound
# Protocol: C-Jun and p38 MAPK work downstream of the Ire1 pathway (see FIG. 21), we tested whether one of our hit compounds (6239507) inhibits autophosphorylation of any of kinases in this Ire1-ASK1-JNK/p38 MAPK pathway. […] An Ire1 autophosphorylation assay was performed. Immunoprecipitated Ire1 was incubated with DMSO (2%), 50 μM compound 6239507, or the positive control staurosporine (20 μM; STS) for 20 minutes at 30° C. followed by chilling on ice. 0.5 μCi of ^32P-γ-ATP was added to each tube and incubated at 30° C. for the indicated times. Kinase reactions were finished by adding sample buffer. Incorporation values of ^32P-γ-ATP were evaluated by a scintillation counter. An ASK1-MKK6-p38 coupled assay was also performed. Immunoprecipitated ASK1 was mixed with 1 μg MKK6 (Millipore) and 1 μg p38 MAPK (Sigma). Kinases were incubated with 2% DMSO, 50 μM compound 6239507, or 20 μM staurosporine (STS) in one tube for 20 minutes at 30° C. followed by ice chilling. 0.5 μCi of ^32P-γ-ATP was added to each tube and incubated at 30° C. for the indicated times. Kinase reactions were finished by adding sample buffer. Incorporation values of ^32P-γ-ATP were evaluated by a scintillation counter. C-Jun activation by purified Jnk-1 and Jnk-2 (Millipore) was confirmed with the same procedures.
Structure (SMILES),"Protection against thapsigargin-induced death, SW1 (SW1 melanoma cell; 25 μM, ATP content assay) [%]",Cytoprotective activity in thapsigargin-treated SW1 (SW1 melanoma cell; ATP content assay),"Cytoprotective activity, SW1 (Result) (SW1 melanoma cell; thapsigargin 15 μM, ATP content, compound ≦25 μM)",Protection of Jurkat cells from thapsigargin-induced cell death (Jurkat human T-leukemia),Final DMSO concentration needed in culture media to avoid a visible cloudy precipitate,"Protection against thapsigargin-induced death, primary rat cortical neurons ([1]; 25 μM, microscopy, NeuN-immunopositive cells, Hoechst nuclear morphology) [%]","Inhibition of thapsigargin-induced cell death of rat primary cortical neurons ([1]; counting apoptotic NeuN-positive cells, Hoechst dye)",JNK's activity on c-Jun (Jnk-1 and Jnk-2)
"CCN(CC)c1ccc(C2Nc3ccccc3NC3=C2C(=O)CC(c2ccccc2)C3)cc1 (centres unmarked) [Compound 5962123, 6-(4-diethylaminophenyl)-9-phenyl-5,6,8,9,10,11-hexahydrobenzo[c][1,5]benzodiazepin-7-one]",> 50,demonstrated,+ (+indicates >50% rescue of cell viability relative to untreated cells not exposed to thapsigargin at compound concentration of ≦25 μM),does not protect; also recorded: inactive,at least 0.2 % (v/v),> 50,inhibits,
COc1ccc(C2CC(=O)C3=C(C2)Nc2ccccc2NC3c2cccc(Oc3ccccc3)c2)cc1OC (centres unmarked) [Compound 6239507],,,,,,,,does not modulate
